Source: US7947729B2, “Adduct of fluorescent dye and tumor avid tetrapyrrole” (Health Research, Inc., priority 2004, dated 2011)

Columns and labels:
[1] = test system: RIF tumors; test: Tumor uptake by in vivo reflectance spectroscopy; set-up: species or system C3H mice
Method: The tumor uptake of conjugate 5 was determined by in vivo reflectance spectroscopy. For these experiments, C3H mice bearing RIF tumors were injected with 5.0 μmole/kg of conjugate 5 and the in vivo absorption spectra were taken at various time intervals.

[2] = test system: RIF tumors; test: Photosensitizing efficiency (photodynamic therapy of implanted tumors); assay type: in vivo, C3H mice; settings: light 135 J/cm^2 at 665 nm, 24 hours post injection, FIG. 7
Method: To measure photosensitizing efficiency, RIF tumors were implanted subcutaneously into axilla of 5-7 week old female C3H mice. When tumors grew to about […] in size, conjugate 5 was injected at variable doses (0.5, 1.0, 1.5, and 2.5 μmole/kg) The tumors were treated with light at an energy of 135 J/cm^2 at a wavelength of 665 nm (in vivo absorption band for HPPH) at 24 hours post injection and the mice were observed daily. From the results summarized in FIG. 7, it can be seen that conjugate 5 produced 100% tumor cure at a dose of 2.5 μmole/kg (the tumor imaging dose).

[3] = test system: RIF tumor cells; test: Site of intracellular localization compared with a mitochondrial probe; assay type: cell-based; settings: 24 hours incubation; compared with MITO-TRACKER green (400 nM); FIG. 8
Source text: In general, porphyrin based compounds have shown diverse patterns of localization at least somewhat dependent upon structure, lipophilicity and charge.

| uptake in skin relative to tumor, dye alone ([1]; 5.0 μmole/kg, dye alone, C3H mouse bearing tumor) | tumor uptake compared with HPPH-ICG conjugate 5 ([1]; 5.0 μmole/kg, dye alone, FIG. 5) | time post injection at which cleared from both tumor and skin ([1]; 5.0 μmole/kg, dye alone, found to clear rapidly) [h] | SMILES | uptake in tumor relative to skin ([1]; 5.0 μmole/kg injected, 24 hours post injection, FIG. 3) | tumor cure ([2]; 2.5 μmole/kg) [%] | photosensitizing efficacy at lower doses ([2]; doses below 2.5 μmole/kg (0.5, 1.0, 1.5)) | site of localization in cells [3] |
| --- | --- | --- | --- | --- | --- | --- | --- |
| – | – | – | CCCCCCOC(C)c1c(C)c2cc3nc(c4c5[nH]c(cc6nc(cc1[nH]2)C(C)=C6CC)c(C)c5C(=O)C4)C(CCC(=O)Nc1ccc(SC2=C(C=CC4=[N+](CCCCS(=O)(=O)[O-])c5ccc6ccccc6c5C4(C)C)CCCC2=CC=C2N(CCCCS(=O)(=O)[O-])c4ccc5ccccc5c4C2(C)C)cc1)C3C.[Na+] (stereo not shown) [conjugate 5] | more significant uptake in tumor than skin | 100 | limited photosensitizing efficacy | localizes in mitochondria |
| higher uptake in skin than in tumor | significantly lower tumor uptake | 4 to 5 | CC1(C)C(=CC=C2CCCC(C=CC3=[N+](CCCCS(=O)(=O)[O-])c4ccc5ccccc5c4C3(C)C)=C2Cl)N(CCCCS(=O)(=O)[O-])c2ccc3ccccc3c21.[Na+] [indocyanine green analog (1), indocyanine green 820 nm analog CAS172616-80-7] | – | – | – | – |
